Data as given in patent US10398142B2, “Polycationic amphiphiles as antimicrobial agents” (priority 2013, dated 2019).
Where two headings read alike, the source gives them in different places. Marks after values point to notes of the source that are not given here.

Experiments:
E. faecalis biofilms = experiment: Minimum biofilm eradication concentration (MBEC), regrowth assay; assay type: cell-based, Enterococcus faecalis
In short: (§1)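 Static 24 h biofilms at 37° C. (BHI for S. aureus, Todd Hewitt for E. faecalis), then 16 h compound exposure, PBS washes and overnight regrowth in fresh media. MBEC is the lowest concentration giving final OD595 below 0.1; four replicates per concentration.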

[1] = test system: S. aureus (MSSA, SH1000) biofilms; experiment: as above; assay type: cell-based, Staphylococcus aureus; details: for MBEC MSSA: Table 5, SH1000
In short: as §1

[2] = test system: CA-MRSA (USA300-0114) biofilms; experiment: as above; assay type: cell-based, Staphylococcus aureus; details: for MBEC CA-MRSA: Table 5, USA300-0114
In short: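 CA-MRSA USA300-0114 biofilms grown statically 24 h at 37 °C in BHI, then exposed to compound for 16 h at 37 °C. After PBS washes, biofilms regrown overnight in fresh media; MBEC is the lowest concentration giving OD595 below 0.1, four replicates per concentration.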

S. aureus biofilms = experiment: Crystal violet staining and confocal microscopy of pre-established biofilms; assay type: cell-based, Staphylococcus aureus; details: compared to the aqueous control or norspermidine; 16 h post-treatment
Description: Left: Submerged S. aureus biofilms 16 h post-treatment with the indicated final well concentration of compound. Middle: Biofilms stained with 1% crystal violet. Right: Confocal microscopy images of biofilms 16 h post-treatment.
The inventors have determined that both cationic character and alkyl side chains are important for biofilm eradication.

[3] = test system: Staphylococcus aureus MSSA (SH1000); experiment: Minimum inhibitory concentration (MIC), broth microdilution; assay type: cell-based
In short: (§2)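 Broth microdilution: two-fold serial dilutions (twelve concentrations) mixed 1:1 with overnight cultures diluted to ca. 10^6 cfu/mL in Mueller-Hinton media, incubated statically at 37° C for 72 hours. MIC is lowest concentration with no growth visible to the naked eye, majority of three independent experiments.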

[4] = test system: Pseudomonas aeruginosa (PAO1); experiment: as above; assay type: cell-based; details: for MIC: read-out: MIC P. aeruginosa
In short: as §2

[5] = test system: Enterococcus faecalis (OG1RF); experiment: as above; assay type: cell-based; details: for MIC: read-out: MIC E. faecalis
In short: as §2

[6] = test system: Escherichia coli (MC4100); experiment: as above; assay type: cell-based; details: for MIC: read-out: MIC E. coli
In short: as §2

[7] = test system: red blood cells (defibrinated sheep blood); experiment: Hemolysis assay (Lysis20); details: concentration at which less than 20% of red blood cells are lysed
In short: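 Defibrinated sheep red blood cells were incubated with compounds serially diluted in PBS, and the suspensions were read by OD. 1% Triton X served as 100% lysis and PBS as 0% lysis. Lysis20 is the concentration (μM) at which less than 20% of cells are lysed.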

CA-MRSA (USA300-0114) [8] = experiment: Minimum inhibitory concentration (MIC), broth microdilution; assay type: cell-based, Staphylococcus aureus; details: for MIC: Table 4, USA300-0114, read-out: MIC CA-MRSA
In short: (§3)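 Two-fold serial dilutions (twelve concentrations) from aqueous stock; inoculum ca. 10^6 cfu/mL in Mueller-Hinton media, static incubation at 37 °C for 72 h. MIC read visually as lowest concentration with no visible growth, majority of three independent experiments.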

HA-MRSA (ATCC 33591) = experiment: as above; assay type: cell-based, Staphylococcus aureus; details: for MIC: Table 4, ATCC 33591, read-out: MIC HA-MRSA
In short: as §3

CA-MRSA (USA300-0114) [9] = experiment: Resistance development, liquid culture serial passage; assay type: cell-based, Staphylococcus aureus; details: for resistance in serial passage, CA-MRSA (USA300-0114): over 24 days (>500 generations)
Description: (§4) Resistance development such as liquid culture resistance assay was performed. […] Once a day, an aliquot of bacterial culture from the highest concentration allowing bacterial growth was diluted 1:10,000 in fresh media containing a range of antibacterial compound. This process was repeated for several hundred generations.
(§5) Resistance Development Assays: Liquid culture serial passage protocols, in which bacteria are successively grown at sub-lethal concentrations of antibacterial compound, were employed.

MSSA (SH1000) = experiment: as above; assay type: cell-based, Staphylococcus aureus; details: for resistance in serial passage, MSSA: over 24 days (>500 generations)
Description: as §4, §5

[10] = test system: Staphylococcus aureus, Enterococcus faecalis, Escherichia coli and Pseudomonas aeruginosa; experiment: MIC, summary statements over the four bacteria; assay type: cell-based; details: comparison of MIC values
Description: The term “minimum inhibitory concentration (MIC)” means the lowest concentration of an antimicrobial agent that will inhibit the visible growth of a microorganism after overnight incubation. MIC values against bacteria, for example, the Gram-positive Staphylococcus aureus and Enterococcus faecalis and the Gram-negative Escherichia coli and Pseudomonas aeruginosa were determined by standard methods. See also P. A. Wayne, Methods for Dilution Antimicrobial Tests for Bacteria that Grow Aerobically; Approved Standard, Ninth Edition, 2012, CLSI Document M07-A9, Vol. 32 No. 2.
With nearly three-dozen amphiphiles varying in structure and cationic nature synthesized, minimum inhibitory concentration (MIC) values against the Gram-positive Staphylococcus aureus and Enterococcus faecalis and the Gram-negative Escherichia coli and Pseudomonas aeruginosa were determined by standard methods. […] The commercially available antibacterial agent benzalkonium chloride (benzyldimethyldodecylammonium chloride, Bn,12) was tested for comparison. The broth microdilution for determining MIC values was performed as previously reported.
MIC variation mostly hinged on the length of alkyl chain, where the dodecyl chain was generally found to be optimal. […]

[11] = Table 2, pre-established biofilm, ± values varied between 50 and 100 μM for the six trials
[12] = Table 1, read-out: MIC S. aureus
[13] = Table 3, read-out: MIC S. aureus
[14] = Table 4, SH1000, read-out: MIC MSSA
[15] = table for compound (12,3,2,3,12)
[16] = over a period of at least 14 days

Structure (SMILES) | MBEC E. faecalis (E. faecalis biofilms; [11]) | MBEC E. faecalis (E. faecalis biofilms; Table 5) [µM] | MBEC S. aureus [1, 11] [µM] | MBEC MSSA [1] [µM] | MBEC CA-MRSA [2] [µM] | effect against pre-established biofilms, crystal violet staining (S. aureus biofilms) | MIC [3, 12] [µM] | MIC [3, 13] [µM] | MIC [3, 14] [µM] | MIC ([4]; Table 1) [µM] | MIC ([4]; Table 3) [µM] | MIC ([5]; Table 1) [µM] | MIC ([5]; Table 3) [µM] | MIC ([6]; Table 1) [µM] | MIC ([6]; Table 3) [µM] | Lysis20 ([7]; Table 4) [µM] | MIC (CA-MRSA (USA300-0114) [8]) [µM] | MIC (HA-MRSA (ATCC 33591)) [µM] | resistance in serial passage, CA-MRSA (USA300-0114) (CA-MRSA (USA300-0114) [9]) | resistance in serial passage, MSSA (MSSA (SH1000)) | further results
CCCCCCCCCCCC[N+](C)(C)CCCN(C)CCC[N+](C)(C)CCCCCCCCCCCC.[Br-].[Br-] [12,3,0,3,12] | 50 µM | 100 | 100 | 50 | 150 ± 50 | significant effect | 1 | 1 | 1 | 4 | 4 | ≤0.25 | 2 | ≤0.25 | 1 | 4 | 1 | 0.5 |  |  | 
CCCCCCCCCCCC[N+](C)(C)CCC[N+](C)(C)CCC[N+](C)(C)CCCCCCCCCCCC.[Br-].[Br-].[I-] [12,3,1,3,12] | 50 µM | 200 | 100 | 100 | 150 ± 50 | significant effect | 0.5 | 1 | 1 | 2 | 8 | 1 | 2 | 1 | 2 | 8 | 0.5 | 1 |  |  | 
CCCCCCCCCCCC[N+](C)(C)CCC[N+](C)(CC)CCC[N+](C)(C)CCCCCCCCCCCC.[Br-].[Br-].[Br-] [12,3,2,3,12] |  | 100 |  | 100 | 100 |  |  |  | 0.5 |  |  |  |  |  |  | 8 | 0.5 | 1 | No resistance was observed | No resistance was observed | MBEC E. faecalis (E. faecalis biofilms; [15]): 100 µM; MBEC S. aureus [1, 15]: 100 µM; MBEC USA300-0114 [2, 15]: 100 µM; resistance in serially passaged liquid culture, USA300-0114 (CA-MRSA (USA300-0114) [9]; [16]): No resistance was observed; resistance in serially passaged liquid culture, SH1000 (MSSA (SH1000); [16]): No resistance was observed; MIC S. aureus (SH1000) [3, 15]: 0.5 µM; MIC P. aeruginosa (PA01) [4, 15]: 2 µM; MIC E. faecalis (OG1RF) [5, 15]: 0.5 µM; MIC E. coli (MC4100) [6, 15]: 1 µM; Lysis20 [7, 15]: 8 µM; MIC CA-MRSA (USA300-0114) (CA-MRSA (USA300-0114) [8]; [15]): 0.5 µM; MIC HA-MRSA (ATCC33591) (HA-MRSA (ATCC 33591); [15]): 1 µM
CCCCCCCCCCCC[N+](C)(C)CCC[N+](C)(C)CCCCCCCCCCCC.[Br-].[Br-] [12,3,12] | 75 ± 25^a μM | 50 | 100 | 75 ± 25 | 100 | significant effect | 2 |  | 2 | 4 |  | 1 |  | 1 |  | 8 | 1 | 2 | No resistance was observed | No resistance was observed | 
CCCCCCCCCCCC[N+](C)(C)CCN(C)CCN(C)CC[N+](C)(C)CCCCCCCCCCCC.[Br-].[Br-] [N4-12,0,0,12] |  | 75 ± 25 |  | 50 | 100 |  |  | 1 | 1 |  | 4 |  | 1 |  | 1 | 4 | 1 | 1 |  |  | fold more bioactive than (N4-12,0,0,0) [10]: about 8 fold
C=CC[N+](C)(CC[N+](C)(C)CCCCCCCCCCCC)CC[N+](C)(CC=C)CC[N+](C)(C)CCCCCCCCCCCC.[Br-].[Br-].[Br-].[Br-] (stereo not drawn) [N4-12,3A,3A,12] |  | 200 |  | 100 | 150 ± 50 |  |  | 1 | 1 |  | 2 |  | 1 |  | 1 | 8 | 1 | 0.5 | No resistance was observed | No resistance was observed | fold more bioactive than (N4-12,0,0,0) [10]: about 8 fold
